# How the values were obtained:
# [1] = system: HIF‐1α transcriptional activity; test: dual‐luciferase assay (HRE‐Firefly Luciferase / renilla) of HIF‐1α transcriptional activity in HEK293T cells; assay type: cell-based, human; details: mean ± s.d. (n = 3); for inhibition at 10 µM: read-out: Inhibition rate [%] @ 10 µM; for IC50: HEK293T dual‐luciferase
# Source text: To screen HIF‐1α inhibitors in a robust cell‐based assay, we optimized the dual‐luciferase assay with pLenti‐HIF‐1αP2A (P402A and P564A) instead of pLenti‐HIF‐1α in order to ensure the expression of HIF‐1α under normoxia condition. In the cell‐based assay, HEK293T cells were co‐transfected with pLenti‐HIF‐1αP2A, renilla, and hypoxia‐responsive element (HRE)‐Firefly Luciferase (Figure S1, Supporting Information). […] Three compounds were selected as the positive controls including two inhibitors (PX‐478 2HCl and BAY 87‐2243) and an activator (BAY 85‐3934) in the screening assay.
# HEK293T cells were stably transfected with reporter plasmids pGMLV‐HRE‐LUC‐puromycin, pMSCV‐renilla‐hygromycin, and pLenti‐HIF‐1αP2A‐neomycin. Stable cell line constructed above, 293‐HIF‐1αP2A‐HRE‐Fluc‐Rluc, were seeded in 384‐well plates and cultured in DMEM with 10% FBS. The following day, the cells were pretreated with indicated chemical compounds from the National Compound Library of the Shanghai Institute of Materia Medica, Chinese Academy of Sciences by Mosquito HTS. The plate was then placed in an incubator chamber and incubated at 37 °C for 24 h. The ratio of firefly/renilla luciferase activity was determined by using the Envision (PerkinElmer).
# Stable cell line 293‐HRE‐Fluc‐Rluc expressed luciferase and renilla or HEK293T cells transfected with indicated plasmids (pGL3‐HRE‐luciferase and pSV40‐renilla) were seeded in a 96‐well plate. The cells were co‐incubated with indicated compounds for 24 h and luciferase activities were detected in Microplate Reader (BioTek SYNEGRY H1) using the Dual Luciferase Reporter Assay System Kit (Promega, USA E1910) according to the manufacturer's instruction. The relative Luc activity was normalized by renilla activity. Three independent experiments were performed, and the calculated means and SDs are presented.
# [2] = plasma concentration and pharmacokinetics after intraperitoneal administration in ICR mice; assay type: in vivo; details: intraperitoneal 50 mg kg^−1, two mice per compound, five times
# Procedure: First, we roughly screened the concentrations in the plasma of seven selected compounds (1‐3n, 1‐3au, 1‐4a, 1‐4k, 1‐4l, 1‐4m, and 1‐4p) at indicated times after intraperitoneal administration in the Institute of Cancer Research (ICR) mice at a dose of 50 mg kg^−1 with two mice per compound, the blood at five different times was collected and the plasma concentration was analyzed finally. […] Besides, we examined the toxicity of HI‐104 in ICR mice by administering for 1 week at a dose of 100 mg kg^−1 by intraperitoneal injection.
# [3] = Homo sapiens, HEK-293T, 10 µM, incubation 24 h, HEK293T
"IC50 ([1]; Homo sapiens, HEK-293T) [nM]",SMILES,"inhibition at 10 µM [1, 3] [%]",further results
73 ± 2,"Nc1ccnc(C(=O)Nc2ccc(C34CC5CC(CC(C5)C3)C4)cc2)c1 [1‐4p, N‐(4‐((3r,5r,7r)‐Adamantan‐1‐yl)Phenyl)−4‐Aminopicolinamide]",99.2 ± 0.1,concentration in the plasma (rough screen) [2]: barely detectable in the plasma
83 ± 3,"Cn1cncc1C(=O)Nc1ccc(C23CC4CC(CC(C4)C2)C3)cc1 [1‐4l, N‐(4‐((3r,5r,7r)‐Adamantan‐1‐yl)Phenyl)−1‐Methyl‐1H‐Imidazole‐5‐Carboxamide]",97.8 ± 0.6,concentration in the plasma (rough screen) [2]: barely detectable in the plasma
65 ± 22,"O=C(Nc1ccc(C23CC4CC(CC(C4)C2)C3)cc1)c1ccccn1 [1‐4a, N‐(4‐((3r,5r,7r)‐Adamantan‐1‐yl)Phenyl)Picolinamide]",99.7 ± 0.2,concentration in the plasma (rough screen) [2]: barely detectable in the plasma
1000 ± 100,"O=C(CCCCBr)Nc1cccc(C(=O)Nc2ccc(C34CC5CC(CC(C5)C3)C4)cc2)c1 [1‐3al, N‐(4‐((1s,3s)‐Adamantan‐1‐yl)Phenyl)−3‐(5‐Bromopentanamido)Benzamide]",89.5 ± 1.1,–
–,"COc1ccccc1C(=O)Nc1ccc(C23CC4CC(CC(C4)C2)C3)cc1 [1‐3g, N‐(4‐((3r,5r,7r)‐Adamantan‐1‐yl)Phenyl)−2‐Methoxybenzamide]",40.2 ± 2.1,–
–,"CC(C)(C)OC(=O)Nc1ccc(C(=O)Nc2ccc(C34CC5CC(CC(C5)C3)C4)cc2)cc1 [1‐3r, Tert‐Butyl (4‐((4‐((3r,5r,7r)‐Adamantan‐1‐yl)Phenyl)Carbamoyl)Phenyl)Carbamate]",54.6 ± 1.6,–
2300 ± 500,"O=C(CCCCBr)Nc1ccc(C(=O)Nc2ccc(C34CC5CC(CC(C5)C3)C4)cc2)cc1 [1‐3ao, N‐(4‐((3r,5r,7r)‐Adamantan‐1‐yl)Phenyl)−4‐(5‐Bromopentanamido)Benzamide]",82.9 ± 2.4,–
–,"O=C(Nc1ccc(C23CC4CC(CC(C4)C2)C3)cc1)c1ccsc1 [1‐4o, N‐(4‐((3r,5r,7r)‐Adamantan‐1‐yl)Phenyl)Thiophene‐3‐Carboxamide]",48.5 ± 8.7,–
–,"CC12CC3CC(C)(C1)CC(c1ccc(NC(=O)c4cccc(Cl)c4)cc1)(C3)C2 [3‐2e, 3‐Chloro‐N‐(4‐((1r,3R,5S,7r)−3,5‐Dimethyladamantan‐1‐yl)Phenyl)Benzamide]",27.1 ± 1,–
–,"O=C(Nc1ccc(C23CC4CC(CC(C4)C2)C3)cc1)c1ccc(N2CCCC2)cc1 [1‐3ah, N‐(4‐((3r,5r,7r)‐Adamantan‐1‐yl)Phenyl)−4‐(Pyrrolidin‐1‐yl)Benzamide]",66.5 ± 0.9,–
–,COc1ccc(C(=O)Nc2ccc(C34CC5CC(CC(C5)C3)C4)cc2)nc1 [1‐4f],36.1 ± 5.6,–
1400 ± 500,"CN1CCN(CCCCC(=O)Nc2ccc(C(=O)Nc3ccc(C45CC6CC(CC(C6)C4)C5)cc3)cc2)CC1 [1‐3ap, N‐(4‐((3r,5r,7r)‐Adamantan‐1‐yl)Phenyl)−4‐(5‐(4‐Methylpiperazin‐1‐yl)Pentanamido)Benzamide]",88.8 ± 0.2,–
–,"CCCCCCCCc1ccc(C(=O)Nc2ccc(C34CC5CC(CC(C5)C3)C4)cc2)cc1 [1‐3ak, N‐(4‐((1s,3s)‐Adamantan‐1‐yl)Phenyl)−4‐Octylbenzamide]",32.5 ± 7.2,–
–,"O=C(CCCC[C@@H]1SC[C@@H]2NC(=O)N[C@@H]21)Nc1ccc(C(=O)Nc2ccc(C34CC5CC(CC(C5)C3)C4)cc2)cc1 [1‐3y, N‐(4‐((3r,5r,7r)‐Adamantan‐1‐yl)Phenyl)−4‐(5‐((3aS,4S,6aR)−2‐Oxohexahydro‐1H‐Thieno[3,4‐d]Imidazol‐4‐yl)Pentanamido)Benzamide]",–,"Inhibition rate [%] @ 10 µM ([1]; 10 µM, incubation 24 h, HEK293T): 90.4 ± 0.8%; IC50 [1]: 280 ± 100 nM"
3500 ± 1000,"O=C(CC12CC3CC(CC(C3)C1)C2)Nc1ccc(NC(=O)c2ccccn2)cc1 [2‐3b, N‐(4‐(2‐((3r,5r,7r)‐Adamantan‐1‐yl)Acetamido)Phenyl)Picolinamide]",68 ± 4.7,–
–,"O=C(Nc1ccc(C23CC4CC(CC(C4)C2)C3)cc1)c1ccncc1 [1‐4c, N‐(4‐((3r,5r,7r)‐Adamantan‐1‐yl)Phenyl)Isonicotinamide]",41.6 ± 2,–

"IC50 ([1]; Homo sapiens, HEK-293T) [nM]",SMILES,"inhibition at 10 µM [1, 3] [%]",further results
–,"CC(=O)Nc1ccccc1C(=O)Nc1ccc(C23CC4CC(CC(C4)C2)C3)cc1 [1‐3v, 2‐Acetamido‐N‐(4‐((3r,5r,7r)‐Adamantan‐1‐yl)Phenyl)Benzamide]",18.4 ± 2.2,–
390 ± 10,"O=C(Nc1ccc(C23CC4CC(CC(C4)C2)C3)cc1)c1cccs1 [1‐4j, N‐(4‐((3r,5r,7r)‐Adamantan‐1‐yl)Phenyl)Thiophene‐2‐Carboxamide]",98.7 ± 0.6,–
–,"CCc1cc(C23CC4CC(C)(CC(C)(C4)C2)C3)cc(CC)c1NC(=O)c1cccc(Cl)c1 [3‐2h, 3‐Chloro‐N‐(4‐((1r,3R,5S,7r)−3,5‐Dimethyladamantan‐1‐yl)−2,6‐Diethylphenyl)Benzamide]",30 ± 8.4,–
230 ± 30,"Nc1cccc(C(=O)Nc2ccc(C34CC5CC(CC(C5)C3)C4)cc2)c1 [1‐3t, N‐(4‐((3r,5r,7r)‐Adamantan‐1‐yl)Phenyl)−3‐Aminobenzamide]",97.3 ± 0.4,–
1500 ± 200,"O=C(NC1C2CC3CC(C2)CC1C3)c1ccc(NC(=O)c2ccccn2)cc1 [2‐3a, N‐(4‐(((1R,3S,5r,7r)‐Adamantan‐2‐yl)Carbamoyl)Phenyl)Picolinamide]",78.5 ± 4.5,–
2500 ± 700,"C[N+](C)(C)CCCC(=O)Nc1cccc(C(=O)Nc2ccc(C34CC5CC(CC(C5)C3)C4)cc2)c1 [1‐3as, 4‐((3‐((4‐((3r,5r,7r)‐Adamantan‐1‐yl)Phenyl)Carbamoyl)Phenyl)Amino)‐N,N,N‐Trimethyl‐4‐Oxobutan‐1‐Aminium]",76.4 ± 1.3,–
–,"N#Cc1cccc(C(=O)Nc2ccc(C34CC5CC(CC(C5)C3)C4)cc2)c1 [1‐3k, N‐(4‐((3r,5r,7r)‐Adamantan‐1‐yl)Phenyl)−3‐Cyanobenzamide]",67.4 ± 3.8,–
110 ± 20,"Nc1cccc(C(=O)Nc2ccc(C34CC5CC(CC(C5)C3)C4)cc2)n1 [1‐4q, N‐(4‐((3r,5r,7r)‐Adamantan‐1‐yl)Phenyl)−6‐Aminopicolinamide]",98.6 ± 0.1,–
–,"O=C(CCCCN1CCOCC1)Nc1ccc(C(=O)Nc2ccc(C34CC5CC(CC(C5)C3)C4)cc2)cc1 [1‐3aq, N‐(4‐((3r,5r,7r)‐Adamantan‐1‐yl)Phenyl)−4‐(5‐Morpholinopentanamido)Benzamide]",69.5 ± 0.5,–
–,Cc1cnc(C(=O)Nc2ccc(C34CC5CC(CC(C5)C3)C4)cc2)cn1 [1‐4e],36.3 ± 4.2,–
–,CC(=O)Nc1ccc(C(=O)Nc2ccc(C34CC5CC(C)(CC(C)(C5)C3)C4)cc2)cc1 [3‐2d],31.4 ± 4.5,–
1900 ± 200,"CC(=O)Nc1cccc(C(=O)Nc2ccc(C34CC5CC(CC(C5)C3)C4)cc2)c1 [1‐3w, 3‐Acetamido‐N‐(4‐((3r,5r,7r)‐Adamantan‐1‐yl)Phenyl)Benzamide]",77.4 ± 2.3,–
–,"N#Cc1ccc(C(=O)Nc2ccc(C34CC5CC(CC(C5)C3)C4)cc2)cc1 [1‐3l, N‐(4‐((3r,5r,7r)‐Adamantan‐1‐yl)Phenyl)−4‐Cyanobenzamide]",61.2 ± 5.5,–
–,"CCCCCCOc1ccccc1C(=O)Nc1ccc(C23CC4CC(CC(C4)C2)C3)cc1 [1‐3ai, N‐(4‐((3r,5r,7r)‐Adamantan‐1‐yl)Phenyl)−2‐(Hexyloxy)Benzamide]",28.2 ± 5.5,–
540 ± 20,"Nc1ccccc1C(=O)Nc1ccc(C23CC4CC(CC(C4)C2)C3)cc1 [1‐3s, N‐(4‐((3r,5r,7r)‐Adamantan‐1‐yl)Phenyl)−2‐Aminobenzamide]",90.4 ± 1.7,–
